In publication PMC5225203, “Multiparameter toxicity assessment of novel DOPO-derived organophosphorus flame retardants” (Archives of Toxicology, 2016):

Experiments:
[1] = system: human dorsal root ganglia-like cells (hESC-H9 derived peripheral neurons); test: Peripheral neurotoxicity test (PeriTox-test); format: cell-based; details: 48 h
Experimental: The human pluripotent stem cell (hPSC) line H9 (WA09 line) was obtained from WiCell (Madison, WI, USA). Import of cells and experiments was authorized under license #170-79-1-4-27 (Robert Koch Institute, Berlin, Germany). Cells were cultured according to standard protocols (Thomson et al. [1998]) and differentiated into dorsal root ganglia-like cells as described earlier (Chambers et al. [2012]), with slight modifications. Briefly, neural differentiation was promoted by adding neural differentiation medium and the combination of 6 small molecule pathway inhibitors [noggin (35 ng/mL; R&D Systems, Minneapolis, MN, USA), dorsomorphin (600 nM; Tocris Bioscience, Bristol, UK), […] (10 μM; Tocris Bioscience, Bristol, UK), CHIR99021 (1.5 µM; Axon Medchem, Vienna, VA, USA), SU5402 (1.5 µM; Tocris Bioscience, Bristol, UK), and DAPT (5 µM; Merck, Darmstadt, Germany)]. The cells were cryopreserved on day 8′ of differentiation (DoD 8′). For each experiment, cells were thawed in neural differentiation medium supplemented with CHIR99021 (1.5 µM), SU5402 (1.5 µM), and DAPT (5 µM). For the peripheral neurotoxicity test (PeriTox-test), test chemicals were serially diluted in differentiation medium containing BDNF, GDNF, and NGF (25 ng/mL; R&D Systems, Minneapolis, USA) and added to the cells on day 3 after thawing. After 48 h, neurite area and viability were assessed as described earlier (Krug et al. [2013]). Briefly, cells were loaded with 1 µM calcein-AM and 1 µg/mL H-33342 for 1 h at 37 °C. For image acquisition, an Array-Scan VTI HCS (high content screening) microscope (Cellomics, Waltham, MA USA) was used. In an automated procedure, all H-33342^+/calcein^+ cells were analyzed as viable cells. In channel 1, H-33342^+ nuclei were detected according to their size, area, shape, and intensity at excitation/emission wavelengths of 365 ± 50/535 ± 45. The nuclei borders were expanded radially by 3.2 µm to define a virtual cell soma area (VCSA). In channel 2 (at excitation/emission wavelengths of 474 ± 40/535 ± 45), all calcein^+ pixels were identified as viable cell structures (VCS). An algorithm was applied that used the VCSA as a filter in the calcein channel and subtracted it from the VCS. The remaining pixels (VCS-VCSA) in the calcein channel were defined as neurite area and were represented relative to the untreated control.

[2] = Penetration into porcine skin by confocal Raman spectroscopy; format: in vitro ADME; details: 1 h; for maximal penetration depth: porcine skin surface, 400 µM; for penetration/accumulation into porcine ear skin: topical 400 µM, confocal Raman
Experimental: The vertical distribution of topically applied DOPO derivatives and reference compounds was investigated on segments of porcine ears from freshly slaughtered animals. The skin was separated from the cartilage, depilated, and placed into Franz diffusion cells (1 cm^2). The acceptor solution was PBS buffer containing 2 % IGEPAL® CA-630 (Sigma-Aldrich). The test compounds were dispersed at a concentration of 400 µM (2 % in the case of caffeine) in PBS buffer containing 2 % IGEPAL® CA-630, after which 300 µL of this mixture (or a blank solution) was topically applied onto the porcine skin and allowed to penetrate for 60 min. Next, the skin was removed from the Franz cells, gently washed with PBS, and placed onto the optical window of an inverse confocal Raman microscope (Model 3510 SCA, River Diagnostics) equipped with a 60 × oil-immersion objective. The 785-nm excitation laser was used to acquire spectra in the fingerprint region (400–1800 cm^−1, 5 s integration time) starting from the surface of the skin and extending to a depth of 60 µm (2 µm step size). The acquisition was repeated for at least five positions. The averaged concentration profiles of the flame retardants and reference compounds were extracted by fitting (unrestricted classical least squares, third-order polynomial baseline) the Raman spectra with the reference spectra of keratin (as representative of all proteins), water, ceramide 3, cholesterol (as representatives of all lipids), natural moisturizing factor (NMF; fixed composition), lactate, urea, and solid test compounds using Skin Tools 2.0 software (River Diagnostics). The concentrations of the test substances are given as the molar fraction relative to keratin rather than correcting for the Raman signal attenuation using mathematical models (Franzen et al. [2013]). The response factors of the test compounds were determined against BSA solutions assuming similar Raman cross sections for keratin and BSA as described in the literature (Caspers et al. [2001]; Fleischli et al. [2013], [2015]). Because EDA-DOPO, ETA-DOPO, and EG-DOPO were only partially soluble in chloroform, their spectra were calibrated against DOPO with the assumption of the same Raman cross section for the biphenyl group. Because of the nature of the unrestricted fit, negative fitting coefficients can be obtained and the values must be compared to those of the blank sample. The fitting coefficients of the blank, untreated skin were also used to estimate the level of detection. The depth resolution of the confocal microscope was determined to be 8 µm at FWHM, leaving an uncertainty of approximately 4 µm in differentiating between truly permeated compounds and compounds sitting at the surface of the skin.

[3] = system: rat neuroblastoma B35 cells; details: B35, 24 h, maximal concentration 100 µM; ref Hendriks et al. [2014]; cited from earlier work

| Structure (SMILES) | concentration moderately affecting neurite mass and reducing cell viability [1] [µM] | maximal penetration depth [2] | penetration/accumulation into porcine ear skin [2] | cell viability [1] | neurite integrity [1] | alterations in cell viability, generation of reactive oxygen species, or intracellular Ca2+ levels [3] |
| --- | --- | --- | --- | --- | --- | --- |
| O=P1(NCCOP2(=O)Oc3ccccc3-c3ccccc32)Oc2ccccc2-c2ccccc21 (stereo not drawn) [ETA-DOPO, 6-(2-((6-oxido-6H-dibenzo[c,e][1,2]oxaphosphinin-6-yl)amino)ethoxy)-6H-dibenzo[c,e][1,2]oxaphosphinine 6-oxide] | > 50 | less than 8 µm | significant accumulation | – | – | – |
| Brc1ccc(Oc2cc(Br)c(Br)cc2Br)c(Br)c1 [PBDE-99, reference compound] | – | less than 8 µm | moderate accumulation | significantly affected | significantly affected | – |
| O=[PH]1Oc2ccccc2-c2ccccc21 (stereo not drawn) [DOPO, 9,10-dihydro-9-oxa-10-phosphaphenanthrene-10-oxide] | > 50 | – | – | – | – | no signs of alterations |
| O=P1(OCCOP2(=O)Oc3ccccc3-c3ccccc32)Oc2ccccc2-c2ccccc21 (stereo not drawn) [EG-DOPO, 6,6′-(ethane-1,2-diylbis(oxy))bis(6H-dibenzo[c,e][1,2]oxaphosphinine-6-oxide)] | – | – | – | significantly affected | significantly affected | – |
| O=P1(NCCNP2(=O)Oc3ccccc3-c3ccccc32)Oc2ccccc2-c2ccccc21 (stereo not drawn) [EDA-DOPO, 6,6′-(ethane-1,2-diylbis(azanediyl))bis(6H-dibenzo[c,e][1,2]oxaphosphinine-6-oxide)] | > 50 | – | – | – | – | – |
